Experiments:
PDE9A [1] = target: T1, PDE9A (Homo sapiens, UniProt O76083); conditions: concentrations of up to 100 μM; cited from earlier work
PDE11A = target: T2, PDE11A (Homo sapiens, UniProt Q9HCR9); test: PDE inhibition, recombinant PDE11A (SPA); format: biochemical; conditions: human isoenzyme, read-out: IC50 PDE11
T2 construct: made in house; host or cells: Sf9 (baculovirus, pFASTBAC)
Description: (§1) Recombinant PDE1C (GenBank/EMBL Accession Number: NM_005020, Loughney et al. J. Biol. Chem. 1996 271, 796-806), PDE2A (GenBank/EMBL Accession Number: NM_002599, Rosman et al. Gene 1997 191, 89-95), PDE3B (GenBank/EMBL Accession Number: NM_000922, Miki et al. Genomics 1996, 36, 476-485), PDE4B (GenBank/EMBL Accession Number: NM_002600, Obernolte et al. Gene. 1993, 129, 239-247), PDE5A (GenBank/EMBL Accession Number: NM_001083, Loughney et al. Gene 1998, 216, 139-147), PDE7B (GenBank/EMBL Accession Number: NM_018945, Hetman et al. Proc. Natl. Acad. Sci. U.S.A. 2000, 97, 472-476), PDE8A (GenBank/EMBL Accession Number: AF—056490, Fisher et al. Biochem. Biophys. Res. Commun. 1998, 246, 570-577), PDE9A (Fisher et al., J. Biol. Chem., 1998, 273 (25): 15559-15564), PDE10A (GenBank/EMBL Accession Number: NM_06661, Fujishige et al. J Biol Chem. 1999, 274, 18438-45), PDE11A (GenBank/EMBL Accession Number: NM_016953, Fawcett et al. Proc. Natl. Acad. Sci. 2000, 97, 3702-3707) were expressed in Sf9 cells with the aid of the pFASTBAC baculovirus expression system (GibcoBRL).
(§2) The test substances are dissolved in 100% DMSO and serially diluted to determine their in vitro effect on PDE9A. Typically, serial dilutions from 200 μM to 1.6 μM are prepared (resulting final concentrations in the assay: 4 μM to 0.032 μM). 2 μl portions of the diluted substance solutions are introduced into the wells of microtitre plates (Isoplate; Wallac Inc., Atlanta, Ga.). Then 50 μl of a dilution of the PDE9A preparation described above are added. […] The plates are then measured for 30 s per well in a Microbeta scintillation counter (Wallac Inc., Atlanta, Ga.). IC50 values are determined from the graphical plot of the substance concentration versus the percentage inhibition.
(§3) The in vitro effect of test substances on recombinant PDE3B, PDE4B, PDE7B, PDE8A, PDE10A and PDE11A is determined by the assay protocol described above for PDE9A with the following adaptations: the substrate used is [5′,8-^3H]adenosine 3′,5′-cyclic phosphate (1 μCi/μl; Amersham Pharmacia Biotech., Piscataway, N.J.). […]

PDE9A [2] = target: T1, PDE9A; test: PDE inhibition, recombinant PDE9A (SPA); format: biochemical; design: made in house; host or cells: Sf9 (baculovirus, pFASTBAC); conditions: human isoenzyme
Protocol: The dilution of the PDE9A preparation is chosen so that less than 70% of the substrate is converted during the subsequent incubation (typical dilution: 1:10 000; dilution buffer: 50 mM Tris/HCl pH 7.5, 8.3 mM MgCl2, 1.7 mM EDTA, 0.2% BSA). […] The plates are then measured for 30 s per well in a Microbeta scintillation counter (Wallac Inc., Atlanta, Ga.). IC50 values are determined from the graphical plot of the substance concentration versus the percentage inhibition.

PDE10A = target: T3, PDE10A (Homo sapiens, UniProt Q9Y233); test: PDE inhibition, recombinant PDE10A (SPA); format: biochemical; conditions: human isoenzyme
T3 construct: made in house; host or cells: Sf9 (baculovirus, pFASTBAC)
T3 sequence (Q9Y233 1-779 isoform Q9Y233-1): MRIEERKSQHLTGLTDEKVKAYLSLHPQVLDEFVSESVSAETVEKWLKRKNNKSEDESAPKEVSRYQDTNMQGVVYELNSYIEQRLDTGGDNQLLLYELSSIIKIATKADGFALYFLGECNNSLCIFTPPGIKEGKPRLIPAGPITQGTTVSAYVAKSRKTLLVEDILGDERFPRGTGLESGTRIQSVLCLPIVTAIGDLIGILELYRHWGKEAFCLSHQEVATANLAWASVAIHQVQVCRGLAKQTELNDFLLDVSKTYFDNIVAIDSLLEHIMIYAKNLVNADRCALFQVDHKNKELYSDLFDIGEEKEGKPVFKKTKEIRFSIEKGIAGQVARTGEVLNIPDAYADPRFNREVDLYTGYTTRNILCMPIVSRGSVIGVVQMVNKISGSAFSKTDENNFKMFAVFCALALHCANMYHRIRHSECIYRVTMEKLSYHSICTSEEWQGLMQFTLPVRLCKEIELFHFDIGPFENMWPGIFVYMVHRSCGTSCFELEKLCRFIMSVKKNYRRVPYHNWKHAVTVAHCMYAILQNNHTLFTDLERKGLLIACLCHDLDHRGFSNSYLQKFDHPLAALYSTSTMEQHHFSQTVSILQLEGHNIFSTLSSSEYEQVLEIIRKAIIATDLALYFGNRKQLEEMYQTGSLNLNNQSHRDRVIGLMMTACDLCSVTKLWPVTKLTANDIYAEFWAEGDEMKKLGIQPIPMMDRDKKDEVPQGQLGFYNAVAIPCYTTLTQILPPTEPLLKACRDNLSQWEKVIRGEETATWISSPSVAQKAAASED
Description: as §1, §2, §3

PDE8A = target: T4, PDE8A (Homo sapiens, UniProt O60658); test: PDE inhibition, recombinant PDE8A (SPA); format: biochemical; conditions: human isoenzyme
T4 construct: made in house; host or cells: Sf9 (baculovirus, pFASTBAC)
Description: Recombinant PDE1C (GenBank/EMBL Accession Number: NM_005020, Loughney et al. J. Biol. Chem. 1996 271, 796-806), PDE2A (GenBank/EMBL Accession Number: NM_002599, Rosman et al. Gene 1997 191, 89-95), PDE3B (GenBank/EMBL Accession Number: NM_000922, Miki et al. Genomics 1996, 36, 476-485), PDE4B (GenBank/EMBL Accession Number: NM_002600, Obernolte et al. Gene. 1993, 129, 239-247), PDE5A (GenBank/EMBL Accession Number: NM_001083, Loughney et al. Gene 1998, 216, 139-147), PDE7B (GenBank/EMBL Accession Number: NM_018945, Hetman et al. Proc. Natl. Acad. Sci. U.S.A. 2000, 97, 472-476), PDE8A (GenBank/EMBL Accession Number: AF—056490, Fisher et al. Biochem. Biophys. Res. Commun. […]
The test substances are dissolved in 100% DMSO and serially diluted to determine their in vitro effect on PDE9A. […] The plates are then measured for 30 s per well in a Microbeta scintillation counter (Wallac Inc., Atlanta, Ga.). IC50 values are determined from the graphical plot of the substance concentration versus the percentage inhibition.
as §3

PDE7B = target: T5, PDE7B (Homo sapiens, UniProt Q9NP56); test: PDE inhibition, recombinant PDE7B (SPA); format: biochemical; conditions: human isoenzyme
T5 construct: made in house; host or cells: Sf9 (baculovirus, pFASTBAC)
T5 sequence (Q9NP56 whole entry): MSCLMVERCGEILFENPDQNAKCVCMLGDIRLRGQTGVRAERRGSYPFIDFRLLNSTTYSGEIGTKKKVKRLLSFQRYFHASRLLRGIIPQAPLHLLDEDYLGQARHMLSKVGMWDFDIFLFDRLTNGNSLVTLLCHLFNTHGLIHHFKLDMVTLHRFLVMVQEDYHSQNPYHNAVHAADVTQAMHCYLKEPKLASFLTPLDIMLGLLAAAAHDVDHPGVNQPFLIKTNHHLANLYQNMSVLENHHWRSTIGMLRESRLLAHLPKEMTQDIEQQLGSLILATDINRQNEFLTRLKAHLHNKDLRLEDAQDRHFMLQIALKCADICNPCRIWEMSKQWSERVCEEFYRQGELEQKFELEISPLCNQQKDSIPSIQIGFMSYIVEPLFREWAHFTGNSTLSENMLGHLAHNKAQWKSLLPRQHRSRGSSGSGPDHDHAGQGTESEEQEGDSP
Description: as §1, §2, §3

PDE1C = target: T6, PDE1C (Homo sapiens, UniProt Q14123); test: PDE inhibition, recombinant PDE1C (SPA); format: biochemical; conditions: human isoenzyme
T6 construct: made in house; host or cells: Sf9 (baculovirus, pFASTBAC)
Description: as §1, §2, §3

PDE3B = target: T7, PDE3B (Homo sapiens, UniProt Q13370); test: PDE inhibition, recombinant PDE3B (SPA); format: biochemical; conditions: human isoenzyme
T7 construct: made in house; host or cells: Sf9 (baculovirus, pFASTBAC)
T7 sequence (Q13370 whole entry): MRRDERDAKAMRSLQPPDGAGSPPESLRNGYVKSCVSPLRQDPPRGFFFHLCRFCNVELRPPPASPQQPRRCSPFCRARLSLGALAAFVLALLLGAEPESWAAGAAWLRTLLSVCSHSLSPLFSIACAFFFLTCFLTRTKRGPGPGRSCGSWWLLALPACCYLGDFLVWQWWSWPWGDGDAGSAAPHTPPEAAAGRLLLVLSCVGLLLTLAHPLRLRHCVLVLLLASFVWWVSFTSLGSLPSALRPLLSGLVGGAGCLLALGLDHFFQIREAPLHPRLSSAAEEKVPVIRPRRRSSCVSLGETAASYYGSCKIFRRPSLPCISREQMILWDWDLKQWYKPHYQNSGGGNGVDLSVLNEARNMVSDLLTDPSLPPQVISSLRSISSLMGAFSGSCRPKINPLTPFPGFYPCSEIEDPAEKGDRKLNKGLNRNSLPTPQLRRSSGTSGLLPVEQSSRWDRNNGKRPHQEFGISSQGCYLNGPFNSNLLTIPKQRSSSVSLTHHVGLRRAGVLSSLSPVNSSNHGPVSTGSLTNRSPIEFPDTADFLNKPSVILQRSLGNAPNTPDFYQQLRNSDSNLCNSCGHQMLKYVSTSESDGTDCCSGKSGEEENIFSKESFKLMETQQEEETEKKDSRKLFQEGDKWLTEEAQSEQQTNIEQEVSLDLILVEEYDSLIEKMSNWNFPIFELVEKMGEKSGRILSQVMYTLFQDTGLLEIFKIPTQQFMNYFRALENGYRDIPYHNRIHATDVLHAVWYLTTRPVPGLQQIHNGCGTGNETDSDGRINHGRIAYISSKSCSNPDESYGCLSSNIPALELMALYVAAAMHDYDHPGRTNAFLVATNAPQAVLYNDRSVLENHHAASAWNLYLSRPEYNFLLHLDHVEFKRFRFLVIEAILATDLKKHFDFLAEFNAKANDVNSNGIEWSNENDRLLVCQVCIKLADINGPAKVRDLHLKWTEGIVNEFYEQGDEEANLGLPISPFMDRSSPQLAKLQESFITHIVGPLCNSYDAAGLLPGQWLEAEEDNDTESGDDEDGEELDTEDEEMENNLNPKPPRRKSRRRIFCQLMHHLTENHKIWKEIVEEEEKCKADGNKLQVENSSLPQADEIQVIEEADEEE
Description: as §1, §2, §3

PDE4B = PDE4B (Homo sapiens, UniProt Q07343); test: PDE inhibition, recombinant PDE4B (SPA); format: biochemical; conditions: human isoenzyme
PDE4B, sequence (Q07343 212-736 limits assumed): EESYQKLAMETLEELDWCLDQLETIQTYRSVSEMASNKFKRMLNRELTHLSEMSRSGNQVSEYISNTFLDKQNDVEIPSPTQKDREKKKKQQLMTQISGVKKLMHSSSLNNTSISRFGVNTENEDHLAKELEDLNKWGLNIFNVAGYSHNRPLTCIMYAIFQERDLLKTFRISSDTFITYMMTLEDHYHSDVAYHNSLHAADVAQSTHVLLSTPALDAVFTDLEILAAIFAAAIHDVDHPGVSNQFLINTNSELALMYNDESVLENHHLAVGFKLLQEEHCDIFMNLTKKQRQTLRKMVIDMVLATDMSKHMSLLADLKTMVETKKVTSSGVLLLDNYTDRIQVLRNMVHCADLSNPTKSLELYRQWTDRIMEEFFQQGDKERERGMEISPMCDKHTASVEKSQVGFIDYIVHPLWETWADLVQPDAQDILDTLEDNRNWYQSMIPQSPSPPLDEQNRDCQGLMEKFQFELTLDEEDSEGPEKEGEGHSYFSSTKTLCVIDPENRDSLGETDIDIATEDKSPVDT
Description: as §1, §2, §3

PDE2A = target: T8, PDE2A (Homo sapiens, UniProt O00408); test: PDE inhibition, recombinant PDE2A (SPA); format: biochemical; conditions: human isoenzyme
T8 construct: made in house; host or cells: Sf9 (baculovirus, pFASTBAC)
T8 sequence (O00408 whole entry): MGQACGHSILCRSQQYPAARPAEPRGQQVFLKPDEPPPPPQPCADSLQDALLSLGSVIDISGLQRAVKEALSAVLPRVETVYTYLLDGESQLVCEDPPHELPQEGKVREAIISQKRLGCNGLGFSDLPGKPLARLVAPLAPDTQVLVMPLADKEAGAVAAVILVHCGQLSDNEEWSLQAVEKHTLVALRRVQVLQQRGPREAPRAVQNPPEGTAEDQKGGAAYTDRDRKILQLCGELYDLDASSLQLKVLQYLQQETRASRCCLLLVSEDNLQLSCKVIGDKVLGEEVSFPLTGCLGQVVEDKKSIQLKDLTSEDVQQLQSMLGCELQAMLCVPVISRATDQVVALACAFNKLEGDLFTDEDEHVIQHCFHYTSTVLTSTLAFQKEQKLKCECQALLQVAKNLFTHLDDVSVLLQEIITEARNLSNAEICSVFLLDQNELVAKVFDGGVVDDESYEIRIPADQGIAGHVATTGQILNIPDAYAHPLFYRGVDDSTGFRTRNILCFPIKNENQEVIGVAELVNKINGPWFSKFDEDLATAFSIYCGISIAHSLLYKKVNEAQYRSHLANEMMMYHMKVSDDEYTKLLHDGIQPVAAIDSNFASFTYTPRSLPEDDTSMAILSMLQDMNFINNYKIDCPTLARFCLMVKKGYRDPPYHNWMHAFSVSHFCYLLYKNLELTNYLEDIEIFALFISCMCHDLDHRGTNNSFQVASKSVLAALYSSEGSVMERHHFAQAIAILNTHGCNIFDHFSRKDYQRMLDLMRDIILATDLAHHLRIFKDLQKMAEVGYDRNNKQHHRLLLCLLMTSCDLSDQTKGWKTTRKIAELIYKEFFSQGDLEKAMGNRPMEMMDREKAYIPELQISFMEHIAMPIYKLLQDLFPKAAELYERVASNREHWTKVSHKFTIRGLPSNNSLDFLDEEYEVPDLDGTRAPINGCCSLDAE
Description: as §1, §2, §3

Murine PDE9A = target: T9, Murine PDE9A (Mus musculus, UniProt O70628); conditions: concentrations below 200 μM; cited from earlier work
T9 sequence (O70628 1-534): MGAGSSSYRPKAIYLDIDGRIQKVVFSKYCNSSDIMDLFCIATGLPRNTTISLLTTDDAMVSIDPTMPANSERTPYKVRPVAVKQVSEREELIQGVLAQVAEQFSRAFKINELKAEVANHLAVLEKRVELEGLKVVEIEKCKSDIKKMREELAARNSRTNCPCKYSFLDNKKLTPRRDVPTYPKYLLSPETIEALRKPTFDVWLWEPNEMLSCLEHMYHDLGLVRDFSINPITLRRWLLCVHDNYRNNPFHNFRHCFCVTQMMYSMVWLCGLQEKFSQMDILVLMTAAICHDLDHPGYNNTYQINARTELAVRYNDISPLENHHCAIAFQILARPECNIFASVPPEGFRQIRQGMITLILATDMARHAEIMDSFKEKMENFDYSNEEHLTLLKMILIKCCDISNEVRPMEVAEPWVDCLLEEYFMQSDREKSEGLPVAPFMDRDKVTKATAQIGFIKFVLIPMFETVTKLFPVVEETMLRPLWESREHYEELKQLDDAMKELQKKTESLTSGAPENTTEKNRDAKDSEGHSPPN

T1 sequence (O76083 whole entry): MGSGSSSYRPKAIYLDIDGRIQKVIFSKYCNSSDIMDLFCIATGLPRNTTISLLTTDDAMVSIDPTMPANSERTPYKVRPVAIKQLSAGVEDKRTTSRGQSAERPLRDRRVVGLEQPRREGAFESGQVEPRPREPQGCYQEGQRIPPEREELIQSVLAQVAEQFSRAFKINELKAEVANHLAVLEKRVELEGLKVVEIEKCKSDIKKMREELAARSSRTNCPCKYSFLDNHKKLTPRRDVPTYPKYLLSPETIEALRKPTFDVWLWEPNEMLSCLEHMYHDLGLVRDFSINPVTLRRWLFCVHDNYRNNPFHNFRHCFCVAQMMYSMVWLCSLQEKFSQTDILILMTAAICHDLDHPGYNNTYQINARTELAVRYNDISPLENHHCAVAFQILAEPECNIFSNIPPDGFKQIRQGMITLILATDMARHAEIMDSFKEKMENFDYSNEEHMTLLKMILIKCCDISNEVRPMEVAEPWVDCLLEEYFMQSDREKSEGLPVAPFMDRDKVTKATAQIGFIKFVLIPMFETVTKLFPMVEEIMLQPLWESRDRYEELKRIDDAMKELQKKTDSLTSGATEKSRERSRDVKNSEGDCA
T2 sequence (Q9HCR9 445-933 limits assumed): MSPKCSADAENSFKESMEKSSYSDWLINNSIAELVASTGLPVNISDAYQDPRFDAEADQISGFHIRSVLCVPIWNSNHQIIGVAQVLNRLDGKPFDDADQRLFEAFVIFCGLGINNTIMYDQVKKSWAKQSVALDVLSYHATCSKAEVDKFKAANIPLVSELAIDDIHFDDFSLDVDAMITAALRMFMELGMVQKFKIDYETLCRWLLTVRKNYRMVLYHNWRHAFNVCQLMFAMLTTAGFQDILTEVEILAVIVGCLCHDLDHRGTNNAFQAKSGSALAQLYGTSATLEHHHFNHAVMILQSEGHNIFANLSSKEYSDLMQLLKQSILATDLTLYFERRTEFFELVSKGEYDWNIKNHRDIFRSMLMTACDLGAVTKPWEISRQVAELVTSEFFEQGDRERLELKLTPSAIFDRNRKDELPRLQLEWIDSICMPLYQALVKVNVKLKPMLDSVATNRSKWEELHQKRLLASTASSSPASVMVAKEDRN

Row | IC50 (PDE11A) [µM] | IC50 (PDE9A [2]) [µM] | IC50 (PDE10A) [µM] | IC50 (PDE8A) [µM] | IC50 (PDE7B) [µM] | IC50 (PDE1C) [µM] | IC50 (PDE3B) [µM] | IC50 (PDE4B) [µM] | IC50 (PDE2A) [µM] | Compound | inhibition on the isolated enzyme (human PDE9A) (PDE9A [1]) | inhibition of murine PDE9A (Murine PDE9A)
1 | – | – | – | – | – | – | – | – | – | OCCN(CCO)c1nc(N2CCCCC2)c2nc(N(CCO)CCO)nc(N3CCCCC3)c2n1 [dipyridamole] | no inhibition | –
2 | 1.5 | 0.015 | > 4 | > 4 | > 4 | > 4 | > 4 | > 4 | > 4 | COc1ccc(-c2ccccc2Cc2nc(N3CCCC3)c(C#N)c(=O)[nH]2)cn1 [Example 113] | – | –
3 | > 4 | – | > 4 | – | 2.2 | > 4 | > 4 | > 4 | > 4 | COc1ccc(-c2ccccc2Cc2nc(N3CCC(CCO)CC3)c(C#N)c(=O)[nH]2)cn1 [Example 38, 4-[4-(2-Hydroxyethyl)piperidin-1-yl]-2-[2-(6-methoxypyridin-3-yl)benzyl]-6-oxo-1,6-dihydropyrimidine-5-carbonitrile] | – | –
4 | – | – | – | – | – | – | – | – | – | CC(C)Cn1c(=O)n(C)c(=O)c2[nH]cnc21 [IBMX] | no inhibition | not inhibited
5 | – | – | – | – | – | – | – | – | – | COc1ccc(C2CNC(=O)C2)cc1OC1CCCC1 (stereo not shown) [rolipram] | no inhibition | –
6 | – | – | – | – | – | – | – | – | – | CCOC(=O)C1=C[C@]2(CC)CCCN3CCc4c(n1c1ccccc41)[C@@H]32 [vinpocetine] | no inhibition | –
7 | – | – | – | – | – | – | – | – | – | CC(=O)Nc1ccc(-c2c[nH]c(=O)cn2)cc1 [SKF94120] | no inhibition | –
8 | > 4 | 0.005 | > 4 | > 4 | > 4 | > 4 | > 4 | > 4 | > 4 | COc1ccc(-c2ccccc2Cc2nc(N3CCC[C@H]3CO)c(C#N)c(=O)[nH]2)cn1 [Example 112] | – | –
